Measurements as given in patent publication US8574871B2, “Genetically modified yeasts for the production of homogenous glycoproteins” (GLYCODE, priority 2007, dated 2013).

Legend:
alpha-1,2-mannosidase I = test: Mannosidase activity assay in yeast microsomes, with or without DMJ; assay type: biochemical, C. Elegans; conditions: 120 μM DMJ, triplicate (FIG. 6)
Description: (§1) Mannosidase activity is measured by incubating for 4 hours at 37° C., with 4 mM of p-nitrophenyl-α-D-mannopyranoside with 100-200 μg of proteins (from total proteins or sub-cellular fractions) in 0.1 M of PBS, pH 6.5+/−120 μM DMJ (alpha-1,2-mannosidase I inhibitor) +/−12 μM SW (specific inhibitor of mannosidase II). Absorbance is measured at 405 nm.
The Adèle and Edgar yeasts, positive for the insertion of the expression cassette of mannosidase I in the gene URA3, are tested for their mannosidase I biochemical activity. […] The experiment was conducted in triplicate. We may observe in the wild S. cerevisiae and S. pombe strains, a mannosidase activity non-inhibited by DMJ.

mannosidase II = target: T1, mannosidase II (Mus musculus, UniProt P27046, V673G); test: Mannosidase activity assay in Golgian yeast fractions, with or without swainsonine; assay type: biochemical; conditions: 12 μM SW (FIG. 9)
T1 construct: Amplification of a 3,453 by fragment; expressed in transfected cells; host or cells: S. cerevisiae and S. pombe with the TEF-promoter cassette integrated in LEU2 (strains Anaïs / Enrique); Golgi fractions
T1 sequence (P27046 1-1150 V673G): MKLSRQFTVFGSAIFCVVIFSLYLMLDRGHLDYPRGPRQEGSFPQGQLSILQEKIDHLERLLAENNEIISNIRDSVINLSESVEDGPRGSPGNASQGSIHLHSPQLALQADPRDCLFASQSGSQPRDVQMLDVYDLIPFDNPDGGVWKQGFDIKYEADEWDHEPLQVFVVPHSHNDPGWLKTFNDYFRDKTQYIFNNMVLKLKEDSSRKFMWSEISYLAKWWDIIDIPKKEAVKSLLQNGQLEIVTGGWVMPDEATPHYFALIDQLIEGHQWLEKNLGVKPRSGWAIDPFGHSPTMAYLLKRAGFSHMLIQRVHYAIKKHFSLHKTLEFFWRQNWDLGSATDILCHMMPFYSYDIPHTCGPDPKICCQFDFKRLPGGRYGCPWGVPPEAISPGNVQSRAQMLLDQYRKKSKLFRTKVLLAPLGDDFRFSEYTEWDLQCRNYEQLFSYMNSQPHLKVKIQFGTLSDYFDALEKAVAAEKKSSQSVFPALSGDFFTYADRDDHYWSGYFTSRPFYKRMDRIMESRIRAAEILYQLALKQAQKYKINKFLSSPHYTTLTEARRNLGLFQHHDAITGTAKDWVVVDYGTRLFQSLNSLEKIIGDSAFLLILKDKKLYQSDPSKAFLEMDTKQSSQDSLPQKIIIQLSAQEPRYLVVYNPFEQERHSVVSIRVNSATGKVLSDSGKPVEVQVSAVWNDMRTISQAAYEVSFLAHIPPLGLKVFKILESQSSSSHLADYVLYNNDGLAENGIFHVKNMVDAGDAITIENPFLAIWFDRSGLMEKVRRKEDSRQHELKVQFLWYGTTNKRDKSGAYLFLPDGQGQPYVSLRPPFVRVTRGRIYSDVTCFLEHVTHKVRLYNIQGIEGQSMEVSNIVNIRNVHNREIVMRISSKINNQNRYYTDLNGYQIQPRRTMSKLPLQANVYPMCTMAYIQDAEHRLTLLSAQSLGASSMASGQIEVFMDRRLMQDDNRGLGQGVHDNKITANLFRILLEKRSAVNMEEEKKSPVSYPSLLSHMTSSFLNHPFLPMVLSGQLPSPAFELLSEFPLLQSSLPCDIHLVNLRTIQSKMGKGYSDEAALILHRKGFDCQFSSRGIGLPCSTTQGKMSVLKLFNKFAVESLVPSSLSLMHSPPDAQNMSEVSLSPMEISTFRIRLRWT
Description: as §1
According to FIG. 9, we may observe in the parent S. cerevisiae and S. pombe strains a mannosidase activity insensitive to the inhibitory action of swainsonine. […] Further as, the measured mannosidase II activity is detected in Golgian yeast fractions, we may infer that this enzyme is properly expressed in the secretion route at the Golgian system.

In the case of `OC[C@H]1NC[C@@H](O)[C@@H](O)[C@@H]1O` [DMJ, deoxymannojirimycin], the “inhibition of mannosidase activity by DMJ” value (alpha-1,2-mannosidase I; selected S. cerevisiae and S. pombe strains with mannosidase I cassette) is reported as “significant inhibition” and the “inhibition of mannosidase activity by DMJ” value (alpha-1,2-mannosidase I; wild S. cerevisiae and S. pombe strains) is reported as “non-inhibited”.
For `O[C@H]1[C@H]2[C@H](O)CCCN2C[C@H]1O` [swainsonine], the “inhibition of mannosidase activity by swainsonine” value (mannosidase II; parent S. cerevisiae and S. pombe strains) was “insensitive” and the “inhibition of mannosidase activity by swainsonine” value (mannosidase II; selected S. cerevisiae and S. pombe strains with mannosidase II cassette) was “significant inhibition”.
